Patent USRE47689E1, “Compounds for treating spinal muscular atrophy” (PTC Therapeutics, Inc., priority 2011, dated 2019)
Read-outs that look alike come from different tables or passages of the source. Blank lines part the entries; values can stand above or below the molecule they belong to.

What was measured:
[1] = tested on: SMN2 minigene (full length SMN2 minigene mRNA containing SMN2 exon 7); assay: SMN2 minigene mRNA splicing RT-qPCR assay in cultured cells; assay type: cell-based, human; conditions: Homo sapiens, HEK293-H, read-out: EC1.5x for production of full length SMN2 mRNA
In short: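 Read-out: full-length (exon 7-included) SMN2 minigene mRNA by multiplex RT-qPCR with GAPDH, efficiency-corrected (1+E)^−Ct, GAPDH-normalized and divided by vehicle. Stably transfected HEK293H cells, 24 h compound exposure, duplicates per concentration. Value is EC1.5x, reported as star ranges.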

[2] = tested on: Smn protein; assay: Smn protein assay in cultured cells (SMN HTRF); assay type: cell-based, human; conditions: 48 hours; for maximum fold (Fold) increase of Smn protein: SMA patient fibroblast cells, 7-point concentration data, fold increase relative to vehicle control (SMN HTRF); for EC1.5x (concentration giving 1.5-fold Smn protein increase): SMA Type 1 patient fibroblast cells (GM03813), 7-point concentration curve, SMN HTRF, concentration producing 1.5 times Smn protein vs DMSO vehicle control, read-out: EC1.5x for Smn protein expression
In short: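 Lysates in RIPA with protease inhibitors are incubated overnight at room temperature with HTRF anti-SMN antibodies. EC1.5x is derived from fold increase in ΔF over vehicle.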

[3] = HEK293H cells stably transfected with SMN2-A minigene, 24 hours, 7-point concentration curve, 1.5-fold relative to vehicle-treated cells

Compound: Cc1cc(C)c2nc(-c3cc4ccc(N5CCN[C@@H](C)C5)cc4oc3=O)cn2c1 [Compound 425, 3-(6,8-dimethylimidazo[1,2-a]pyridin-2-yl)-7-[(3S)-3-methylpiperazin-1-yl]-2H-chromen-2-one]
EC (1.5-fold) [1, 3]: 0.1 to 0.3 µM
melting point: 221 to 226 °C
EC1.5x (concentration giving 1.5-fold Smn protein increase) [2]: 1000 to 3000 nM
maximum fold (Fold) increase of Smn protein [2]: *** (fold increase between >1.35 and ≤1.5)

Compound: Cc1ccn2nc(-c3cc4ccc(N5CCN[C@H](C)C5)cc4oc3=O)cc2c1 [Compound 306, 7-[(3R)-3-methylpiperazin-1-yl]-3-(5-methylpyrazolo[1,5-a]pyridin-2-yl)-2H-chromen-2-one]
EC (1.5-fold) [1, 3]: 0.1 to 0.3 µM
melting point: 183 to 187 °C
maximum fold (Fold) increase of Smn protein [2]: *** (fold increase between >1.35 and ≤1.5)

Compound: Cc1ccn2cc(-c3cc4ccc(N5CCN6CCC5CC6)cc4oc3=O)nc2c1 [Compound 521, 7-(1,4-diazabicyclo[3.2.2]non-4-yl)-3-(7-methylimidazo[1,2-a]pyridin-2-yl)-2H-chromen-2-one]
EC (1.5-fold) ([1]; 24 h): 0.3 to 1 µM
melting point: 216 to 223 °C
maximum fold (Fold) increase of Smn protein [2]: ** (fold increase between >1.2 and ≤1.35)

Compound: O=c1oc2cc(N3CCCNCC3)ccc2cc1-c1cn2cccc(F)c2n1 [Compound 357, 7-(1,4-diazepan-1-yl)-3-(8-fluoroimidazo[1,2-a]pyridin-2-yl)-2H-chromen-2-one]
EC (1.5-fold) [1, 3]: 0.1 to 0.3 µM
melting point: 210 to 213 °C
maximum fold (Fold) increase of Smn protein [2]: *** (fold increase between >1.35 and ≤1.5)

Compound: Cc1cc(F)c2nc(-c3cc4ccc(N5CCN(C)CC5)cc4oc3=O)cn2c1 [Compound 353, 3-(8-fluoro-6-methylimidazo[1,2-a]pyridin-2-yl)-7-(4-methylpiperazin-1-yl)-2H-chromen-2-one]
EC (1.5-fold) [1, 3]: < 0.1 µM
melting point: 252 to 262 °C
EC1.5x (concentration giving 1.5-fold Smn protein increase) [2]: 1000 to 3000 nM
maximum fold (Fold) increase of Smn protein [2]: **** (fold increase between >1.5 and ≤1.65)

Compound: O=c1oc2cc(N3CCNCC3)ccc2cc1-c1cc(F)cc(F)c1 [Compound 291, 3-(3,5-difluorophenyl)-7-(piperazin-1-yl)-2H-chromen-2-one]
EC (1.5-fold) [1, 3]: 0.3 to 1 µM
melting point: 202 to 206 °C
maximum fold (Fold) increase of Smn protein [2]: * (maximum fold increase of ≤1.2)

Compound: C[C@@H]1CN(c2ccc3cc(-c4cn5ccsc5n4)c(=O)oc3c2)C[C@H](C)N1 [Compound 167, 7-[(3R,5S)-3,5-dimethylpiperazin-1-yl]-3-(imidazo[2,1-b][1,3]thiazol-6-yl)-2H-chromen-2-one]
EC (1.5-fold) [1, 3]: 0.3 to 1 µM
melting point: 263 to 265 °C
maximum fold (Fold) increase of Smn protein [2]: ** (fold increase between >1.2 and ≤1.35)

Compound: C[C@@H]1CN(c2ccc3cc(-c4cn5cc(C6CC6)cc(F)c5n4)c(=O)oc3c2)C[C@H](C)N1 [Compound 497, 3-(6-cyclopropyl-8-fluoroimidazo[1,2-a]pyridin-2-yl)-7-[(3R,5S)-3,5-dimethylpiperazin-1-yl]-2H-chromen-2-one]
EC (1.5-fold) [1, 3]: 0.3 to 1 µM
melting point: 257 to 267 °C
maximum fold (Fold) increase of Smn protein [2]: * (maximum fold increase of ≤1.2)

Compound: Cc1ccnc(Nc2cc3ccc(N4CCNCC4)cc3oc2=O)c1 [Compound 62, 3-[(4-methylpyridin-2-yl)amino]-7-(piperazin-1-yl)-2H-chromen-2-one]
EC (1.5-fold) [1, 3]: 1 to 3 µM
melting point: 182 to 185 °C
maximum fold (Fold) increase of Smn protein [2]: * (maximum fold increase of ≤1.2)

Compound: O=c1oc2cc(N3CCN4CCCCC4C3)ccc2cc1-c1cn2cccc(F)c2n1 (stereo not shown) [Compound 578, 3-(8-fluoroimidazo[1,2-a]pyridin-2-yl)-7-(octahydro-2H-pyrido[1,2-a]pyrazin-2-yl)-2H-chromen-2-one]
EC (1.5-fold) [1, 3]: 1 to 3 µM
melting point: 230 to 233 °C
maximum fold (Fold) increase of Smn protein [2]: * (maximum fold increase of ≤1.2)

Continued, in another order:

melting point: 177 to 180 °C
Compound: CC(C)Oc1cccc(-c2cc3ccc(N4CCNCC4)cc3oc2=O)n1 [Cpd 385, 7-(piperazin-1-yl)-3-[6-(propan-2-yloxy)pyridin-2-yl]-2H-chromen-2-one]
EC (1.5-fold) [1, 3]: 1 to 3 µM
maximum fold (Fold) increase of Smn protein [2]: * (maximum fold increase of ≤1.2)

melting point: 224 to 229 °C
Compound: Cc1cn2cc(-c3cc4ccc(C5CCNCC5)cc4oc3=O)nc2c(C)n1 [Cpd 742, 3-(6,8-dimethylimidazo[1,2-a]pyrazin-2-yl)-7-(piperidin-4-yl)-2H-chromen-2-one]
EC (1.5-fold) [1, 3]: < 0.1 µM
EC1.5x (concentration giving 1.5-fold Smn protein increase) [2]: < 300 nM
maximum fold (Fold) increase of Smn protein [2]: ***** (fold increase >1.65)

melting point: 231 to 237 °C
Compound: CCN1C[C@@H]2CN(c3ccc4cc(-c5cn6cc(C)nc(C)c6n5)c(=O)oc4c3)C[C@@H]2C1 [Compound 747, 3-(6,8-dimethylimidazo[1,2-a]pyrazin-2-yl)-7-[(3aR,6aS)-5-ethylhexahydropyrrolo[3,4-c]pyrrol-2(1H)-yl]-2H-chromen-2-one]
EC (1.5-fold) [1, 3]: < 0.1 µM
EC1.5x (concentration giving 1.5-fold Smn protein increase) [2]: < 300 nM
maximum fold (Fold) increase of Smn protein [2]: ***** (fold increase >1.65)

melting point: 195 to 198 °C
Compound: Cc1cn2cc(-c3cc4ccc(N5CC[C@H](N(C)C)C5)cc4oc3=O)cc2c(C)n1 [Compound 697, 7-[(3S)-3-(dimethylamino)pyrrolidin-1-yl]-3-(1,3-dimethylpyrrolo[1,2-a]pyrazin-7-yl)-2H-chromen-2-one]
EC (1.5-fold) [1, 3]: < 0.1 µM
EC1.5x (concentration giving 1.5-fold Smn protein increase) [2]: 300 to 1000 nM
maximum fold (Fold) increase of Smn protein [2]: *** (fold increase between >1.35 and ≤1.5)

melting point: 255 to 260 °C
Compound: CN1CCCN(c2ccc3cc(-c4cn5cc(F)cc(F)c5n4)c(=O)oc3c2)CC1 [Cpd 520, 3-(6,8-difluoroimidazo[1,2-a]pyridin-2-yl)-7-(4-methyl-1,4-diazepan-1-yl)-2H-chromen-2-one]
EC (1.5-fold) [1, 3]: 0.3 to 1 µM
maximum fold (Fold) increase of Smn protein [2]: ** (fold increase between >1.2 and ≤1.35)

melting point: 196 to 198 °C
Compound: Cc1cn2cc(-c3cc4ccc(N5C[C@H]6CCN(C)[C@H]6C5)cc4oc3=O)cc2c(C)n1 [Compound 755, 3-(1,3-dimethylpyrrolo[1,2-a]pyrazin-7-yl)-7-[(3aR,6aR)-1-methylhexahydropyrrolo[3,4-b]pyrrol-5(1H)-yl]-2H-chromen-2-one]
EC (1.5-fold) [1, 3]: < 0.1 µM
maximum fold (Fold) increase of Smn protein [2]: *** (fold increase between >1.35 and ≤1.5)

melting point: 220 °C (dec.)
Compound: Cc1cn2cc(-c3cc4ccc(N5CCNCC5)cc4oc3=O)cc2cn1 [Cpd 588, 3-(3-methylpyrrolo[1,2-a]pyrazin-7-yl)-7-(piperazin-1-yl)-2H-chromen-2-one]
EC (1.5-fold) [1, 3]: < 0.1 µM
EC1.5x (concentration giving 1.5-fold Smn protein increase) [2]: < 300 nM
maximum fold (Fold) increase of Smn protein [2]: ***** (fold increase >1.65)

melting point: 200 to 205 °C
Compound: Cc1nc2ccc(-c3cc4ccc(N5CCNCC5)cc4oc3=O)cc2o1 [Compound 695, 3-(2-methyl-1,3-benzoxazol-6-yl)-7-(piperazin-1-yl)-2H-chromen-2-one]
EC (1.5-fold) [1, 3]: < 0.1 µM
maximum fold (Fold) increase of Smn protein [2]: *** (fold increase between >1.35 and ≤1.5)

melting point: 192 to 197 °C
Compound: Cc1cn2cc(-c3cc4ccc(CCNC(C)C)cc4oc3=O)nc2c(C)n1 [Compound 865, 3-(6,8-dimethylimidazo[1,2-a]pyrazin-2-yl)-7-[2-(propan-2-ylamino)ethyl]-2H-chromen-2-one]
EC (1.5-fold) [1, 3]: < 0.1 µM
EC1.5x (concentration giving 1.5-fold Smn protein increase) [2]: 1000 to 3000 nM
maximum fold (Fold) increase of Smn protein [2]: **** (fold increase between >1.5 and ≤1.65)
